Columns and labels:
MMP-2 = target: T1, MMP-2 (Homo sapiens, UniProt P08253); experiment: MMP-2 off-target inhibition; format: biochemical
T1 sequence (P08253 110-660): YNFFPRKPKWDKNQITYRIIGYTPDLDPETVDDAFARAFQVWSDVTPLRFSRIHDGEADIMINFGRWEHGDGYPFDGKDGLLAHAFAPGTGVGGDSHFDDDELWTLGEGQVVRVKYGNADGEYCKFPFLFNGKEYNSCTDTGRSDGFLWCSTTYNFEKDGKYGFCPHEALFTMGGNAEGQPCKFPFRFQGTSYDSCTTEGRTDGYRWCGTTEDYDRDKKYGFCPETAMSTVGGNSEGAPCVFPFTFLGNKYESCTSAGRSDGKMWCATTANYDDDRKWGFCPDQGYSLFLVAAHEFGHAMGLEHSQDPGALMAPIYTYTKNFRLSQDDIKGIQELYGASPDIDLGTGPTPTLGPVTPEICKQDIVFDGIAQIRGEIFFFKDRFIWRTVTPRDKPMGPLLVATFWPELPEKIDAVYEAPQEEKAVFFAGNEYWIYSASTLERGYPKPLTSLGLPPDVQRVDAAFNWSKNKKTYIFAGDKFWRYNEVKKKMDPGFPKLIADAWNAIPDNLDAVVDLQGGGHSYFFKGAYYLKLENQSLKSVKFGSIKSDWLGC
From the text: (§1) Previously, we described N-aryl mercaptoacetamides with high selectivity for the bacterial over a broad range of human MMPs.[29],[30] MMPs are calcium-dependent zinc metalloproteases that play a pivotal role in numerous biochemical processes in humans.[39],[40] Based on the depth of their S1′ binding pocket, MMPs can be divided into three classes: deep (e.g., MMP-3 and -14), intermediate (e.g., MMP-2 and -8), and shallow (e.g., MMP-1 and -7). With the aim to explore the interactions of our inhibitors with all three pocket types, which could help us to assess potential effects on other not-tested representatives, we chose a panel of six MMPs, comprising two members of each class. In addition, HDAC-3, HDAC-8, and TACE (ADAM-17)—enzymes involved in gene expression and the processing of TNF-α,[41],[42] respectively—were selected as important additional human off-targets.

MMP-1 = target: T2, MMP-1 (Homo sapiens, UniProt P03956); experiment: MMP-1 off-target inhibition; format: biochemical; details: read-out: MMP-1 % inhibition @ 100 μM; 100 μM compound
T2 sequence (P03956 100-469): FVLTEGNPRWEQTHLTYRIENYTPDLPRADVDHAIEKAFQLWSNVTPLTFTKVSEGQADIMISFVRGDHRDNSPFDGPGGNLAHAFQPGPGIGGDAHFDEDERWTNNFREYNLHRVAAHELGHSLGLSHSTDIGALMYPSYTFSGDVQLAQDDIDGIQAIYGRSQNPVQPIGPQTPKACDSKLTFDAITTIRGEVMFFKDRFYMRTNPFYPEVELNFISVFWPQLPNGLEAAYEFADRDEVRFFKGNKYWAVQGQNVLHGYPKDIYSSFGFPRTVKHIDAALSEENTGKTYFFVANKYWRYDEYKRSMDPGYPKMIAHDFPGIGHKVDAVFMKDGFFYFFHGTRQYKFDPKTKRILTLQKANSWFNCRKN
From the text: as §1

[1] = target: peptidase domain of ColT (ColT-PD) (Clostridium tetani, UniProt Q899Y1); experiment: biochemical; set-up: species or system C. tetani; details: read-out: ColT-PD % inhibition @ 100 μM
peptidase domain of ColT (ColT-PD), sequence (Q899Y1 340-731 limits assumed): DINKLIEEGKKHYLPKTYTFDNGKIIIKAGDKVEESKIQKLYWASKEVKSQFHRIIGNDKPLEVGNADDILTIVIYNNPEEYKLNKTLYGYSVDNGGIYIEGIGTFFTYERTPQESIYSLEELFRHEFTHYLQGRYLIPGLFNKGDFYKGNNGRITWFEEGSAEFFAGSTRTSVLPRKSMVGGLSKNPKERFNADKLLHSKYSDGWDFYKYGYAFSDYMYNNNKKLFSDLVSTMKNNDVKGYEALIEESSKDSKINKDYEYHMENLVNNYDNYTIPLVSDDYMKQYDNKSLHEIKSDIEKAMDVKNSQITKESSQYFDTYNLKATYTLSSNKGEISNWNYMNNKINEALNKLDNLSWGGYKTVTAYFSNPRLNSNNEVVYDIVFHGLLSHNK

HDAC-3 = target: T3, HDAC-3 (Homo sapiens, UniProt O15379); experiment: HDAC-3 inhibitor screening kit; format: biochemical
T3 construct: purchased Sigma-Aldrich (Saint Louis, MO)
T3 sequence (O15379 whole entry): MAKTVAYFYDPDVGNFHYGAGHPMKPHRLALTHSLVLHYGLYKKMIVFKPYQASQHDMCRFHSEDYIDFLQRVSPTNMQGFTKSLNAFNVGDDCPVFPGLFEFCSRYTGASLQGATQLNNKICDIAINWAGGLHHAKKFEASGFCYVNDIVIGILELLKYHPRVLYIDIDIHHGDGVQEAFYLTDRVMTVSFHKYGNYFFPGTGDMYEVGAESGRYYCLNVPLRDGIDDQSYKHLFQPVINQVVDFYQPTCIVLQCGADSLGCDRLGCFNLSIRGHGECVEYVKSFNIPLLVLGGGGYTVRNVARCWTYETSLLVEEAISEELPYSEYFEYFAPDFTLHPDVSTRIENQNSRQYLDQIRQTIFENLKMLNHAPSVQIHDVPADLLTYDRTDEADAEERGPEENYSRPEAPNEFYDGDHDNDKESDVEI
T3 sequence (Q9Y618 395-489 partner limits assumed): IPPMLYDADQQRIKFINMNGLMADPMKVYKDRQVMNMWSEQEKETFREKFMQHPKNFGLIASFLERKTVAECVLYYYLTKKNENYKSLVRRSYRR
From the text: as §1

[2] = target: T4, collagenase unit of ColQ1 (ColQ1-CU) (Bacillus cereus, UniProt B9J3S4); experiment: biochemical; set-up: species or system B. cereus strain Q1; details: read-out: ColQ1-CU % inhibition @ 100 μM
T4 construct: the collagenase unit of ColQ1 (ColQ1-CU) from B. cereus strain Q1
T4 sequence (B9J3S4 94-765 limits assumed): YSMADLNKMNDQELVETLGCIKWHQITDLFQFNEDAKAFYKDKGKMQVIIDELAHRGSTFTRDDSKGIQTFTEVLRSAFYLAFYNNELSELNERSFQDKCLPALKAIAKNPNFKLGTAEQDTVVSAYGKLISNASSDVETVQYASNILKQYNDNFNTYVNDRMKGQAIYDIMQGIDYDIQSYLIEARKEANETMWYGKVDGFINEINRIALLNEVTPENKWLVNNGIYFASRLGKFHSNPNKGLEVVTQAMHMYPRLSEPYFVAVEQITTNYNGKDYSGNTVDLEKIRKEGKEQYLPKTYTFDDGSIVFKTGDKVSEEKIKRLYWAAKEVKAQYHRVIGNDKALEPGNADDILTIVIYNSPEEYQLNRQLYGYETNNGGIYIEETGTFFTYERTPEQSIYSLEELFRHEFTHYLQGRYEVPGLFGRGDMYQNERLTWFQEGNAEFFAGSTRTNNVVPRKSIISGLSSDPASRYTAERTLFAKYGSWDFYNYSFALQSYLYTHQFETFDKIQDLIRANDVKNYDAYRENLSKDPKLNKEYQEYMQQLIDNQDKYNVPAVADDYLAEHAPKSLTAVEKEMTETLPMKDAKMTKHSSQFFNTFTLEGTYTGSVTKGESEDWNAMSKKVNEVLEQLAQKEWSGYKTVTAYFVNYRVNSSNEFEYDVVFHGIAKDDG

MMP-3 = MMP-3 (Homo sapiens, UniProt P08254); experiment: MMP-3 off-target inhibition; format: biochemical; details: read-out: MMP-3 % inhibition @ 100 μM; 100 μM compound
MMP-3, sequence (P08254 100-477): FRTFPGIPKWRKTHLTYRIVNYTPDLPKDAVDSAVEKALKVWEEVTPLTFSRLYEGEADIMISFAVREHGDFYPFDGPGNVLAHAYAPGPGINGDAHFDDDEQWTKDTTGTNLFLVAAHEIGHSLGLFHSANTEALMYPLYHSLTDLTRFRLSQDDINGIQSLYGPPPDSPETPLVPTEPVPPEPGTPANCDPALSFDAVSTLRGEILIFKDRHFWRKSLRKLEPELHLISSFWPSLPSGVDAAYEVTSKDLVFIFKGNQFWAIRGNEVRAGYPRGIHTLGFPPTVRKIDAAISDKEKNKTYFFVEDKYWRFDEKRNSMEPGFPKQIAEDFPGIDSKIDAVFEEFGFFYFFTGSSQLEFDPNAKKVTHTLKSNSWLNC
From the text: as §1

CC(=O)c1ccc(N2C(=O)CC(S)C2=O)cc1 (stereo not shown) [Compound 25, 1-(4-Acetylphenyl)-3-mercaptopyrrolidine-2,5-dione]
inhibition at 50 µM (MMP-2; 50 µM compound, read-out: MMP-2 % inh @50µM): < 10%
inhibition at 100 µM (MMP-2; read-out: MMP-2 % inhibition @ 100 μM, 100 μM compound): 14 ± 4%
inhibition at 100 µM (MMP-1): < 10%
inhibition at 100 µM [1]: 102 ± 3%
IC50 (HDAC-3): > 100 µM
inhibition at 100 µM [2]: 99 ± 2%
inhibition at 100 µM (MMP-3): < 10%

Reference: PMC7429951 (Journal of Medicinal Chemistry, 2020)
